The record followed here is ChEMBL document CHEMBL1201862, “PubChem BioAssay data set” (2004).

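Cultured in 96-well plates, cells were exposed to test compound for 48 hours across five concentrations. Abbreviation: GI50, concentration required for 50% inhibition of growth.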 The source made the active and inactive calls. Rule as the data show it: active = GI50 up to about 1.1 µM and inactive = higher. Where a SMILES comes first, the peptide text is derived from it. The star is where a group is joined. Boc = CC(C)(C)OC(=O)*

Test systems include HCC 2998; HCT-116; HOP-92; SK-MEL-2; BT-549; KM12; RPMI-8226; SF-268; UACC-62; HCT-15; T47D; MDA-MB-435; SF-295; UACC-257; SK-MEL-5; DU-145; OVCAR-4; MDA-N; SNB-75.
Assay in all cases: inhibition of tumour cell growth, NCI panel, 48 h

With `CCCCCCN(CCCCCC)CCC(=O)c1ccc2cc(Br)c3ccccc3c2c1`, the GI50 in the assay on HCC 2998 is 41.3 µM (inactive); with HCT-116 it was 78.3 µM (inactive); with HOP-92, 19.4 µM (inactive); in the assay on SK-MEL-2 it was 27.3 µM (inactive); in the assay with BT-549, 20.3 µM (inactive); with KM12, 11.5 µM (inactive). For the same molecule, the GI50 is 9.31 µM (inactive) in the assay with RPMI-8226; 28.1 µM (inactive) with SF-268; 25.8 µM (inactive) with UACC-62; 33.8 µM in the assay with HCT-15; 23.3 µM (inactive) in the assay with T47D; 26.1 µM (inactive) with MDA-MB-435. Moreover, the GI50 in the assay with SF-295 was 59 µM (inactive); in the assay with UACC-257, 64.7 µM (inactive); in the assay on SK-MEL-5, 26.1 µM (inactive); in the assay with DU-145 it was 52.2 µM (inactive).
Turning to `O=C(/C(=N/Nc1cn[nH]c(=O)c1Cl)c1ccccc1)c1ccccc1`, the GI50 in the assay with HCC 2998 was 26.9 µM (inactive); in the assay with HCT-116, 23.1 µM (inactive); in the assay on HOP-92, 24.8 µM (inactive); in the assay on OVCAR-4, 41.7 µM (inactive); in the assay with SK-MEL-2, 46 µM (inactive); with MDA-N, 4.99 µM (inactive). Besides, the GI50 in the assay on SNB-75 is 8.79 µM (inactive); in the assay on KM12, 12.8 µM (inactive); in the assay with RPMI-8226, 24.6 µM (inactive); in the assay with UACC-62, 16 µM (inactive); in the assay on HCT-15, 12.6 µM; in the assay with T47D, 28.4 µM (inactive). In addition, the GI50 was 5.11 µM (inactive) with MDA-MB-435; 27.6 µM (inactive) in the assay with SF-295; 29.2 µM (inactive) with UACC-257; 28.2 µM (inactive) with SK-MEL-5; 20.5 µM (inactive) in the assay with DU-145.
Consider `COc1cc(C/N=c2/nc(N(C)C)ss2)cc(OC)c1OC`, for which the GI50 with HCC 2998 is > 10 µM (inactive); with HCT-116, 8.85 µM (inactive); with HOP-92 it was > 10 µM (inactive); in the assay with OVCAR-4 it was > 9.27 µM (inactive); in the assay with MDA-N it was > 10 µM (inactive); in the assay on SNB-75, > 10 µM (inactive). Also, the GI50 is > 7.59 µM (inactive) in the assay with KM12; 2.48 µM (inactive) with RPMI-8226; > 10 µM (inactive) in the assay on SF-268; > 10 µM (inactive) with UACC-62; over 10 µM in the assay with HCT-15; > 10 µM (inactive) in the assay with T47D. Further, the GI50 in the assay on MDA-MB-435, in the assay on SF-295, with UACC-257, in the assay with SK-MEL-5 and in the assay with DU-145 was > 10 µM (inactive) each time.
`CCCCCCCCCCCC(=O)OCC1OC(n2cc(F)c(=O)[nH]c2=O)C(N)C(OC(=O)CCCCCCCCCCC)C1O` (centres undefined): the GI50 in the assay on HCC 2998 is 45.3 µM (inactive); with HCT-116 it was 88.1 µM (inactive); with HOP-92 it was 36.2 µM (inactive); in the assay with OVCAR-4, 37.3 µM (inactive); with SK-MEL-2 it was > 100 µM (inactive); in the assay with SNB-75, 49.7 µM (inactive). Moreover, the GI50 with KM12 is 45.4 µM (inactive); in the assay with RPMI-8226, 54.5 µM (inactive); in the assay on SF-268, > 100 µM (inactive); in the assay on UACC-62, > 100 µM (inactive); with HCT-15, over 100 µM; with SF-295, > 100 µM (inactive). For the same molecule, the values for the GI50 in the assay with UACC-257 and in the assay with SK-MEL-5 were > 100 µM (inactive) and 0.59 µM (active), respectively.
For `CN(NC1=NCCO1)c1ccc2ccccc2c1`, the GI50 in the assay on HCC 2998 was 38.8 µM (inactive); in the assay on HCT-116, 35 µM (inactive); in the assay on HOP-92, 13.6 µM (inactive); with OVCAR-4 it was 42 µM (inactive); with SK-MEL-2, 27.8 µM (inactive); with SNB-75, 17.5 µM (inactive). In addition, the GI50 in the assay on KM12 is 63.1 µM (inactive); with RPMI-8226, 76.7 µM (inactive); in the assay on SF-268, 47.5 µM (inactive); with UACC-62 it was 49.1 µM (inactive); with HCT-15, 49.4 µM; in the assay on T47D, 62.5 µM (inactive). For the same molecule, the GI50 in the assay on MDA-MB-435 is 34.5 µM (inactive); in the assay on SF-295 it was > 100 µM (inactive); in the assay on UACC-257, 65 µM (inactive); in the assay on SK-MEL-5, 29.2 µM (inactive); in the assay with DU-145, > 100 µM (inactive).
For `CN(CC(=O)O)c1ncc2c(n1)-c1ccccc1CC2`, the GI50 is > 100 µM (inactive) in the assay with HCT-116; > 100 µM (inactive) with HOP-92; > 100 µM (inactive) in the assay with OVCAR-4; > 100 µM (inactive) in the assay with SK-MEL-2; > 100 µM (inactive) in the assay on MDA-N; 74.8 µM (inactive) in the assay with SNB-75. In addition, the GI50 is > 100 µM (inactive) with KM12; > 100 µM (inactive) in the assay on RPMI-8226; > 100 µM (inactive) in the assay with SF-268; > 100 µM (inactive) in the assay with UACC-62; over 100 µM in the assay with HCT-15; > 100 µM (inactive) in the assay on MDA-MB-435. Moreover, the GI50 in the assay with SF-295, in the assay on UACC-257, in the assay with SK-MEL-5 and in the assay on DU-145 was > 100 µM (inactive) in each case.
`CC(=O)OCC1OC(n2nc(Cc3ccccc3)c(=S)[nH]c2=S)C(OC(C)=O)C(OC(C)=O)C1OC(C)=O` (centres undefined): the GI50 in the assay with HCT-116 is 21.3 µM (inactive); with HOP-92, 20.4 µM (inactive); in the assay with OVCAR-4, 21.3 µM (inactive); with SK-MEL-2 it was 17.7 µM (inactive); in the assay on BT-549, 19.6 µM (inactive); in the assay with SNB-75, 20.6 µM (inactive). Besides, the GI50 is 20.5 µM (inactive) in the assay on KM12; 21.6 µM (inactive) in the assay on SF-268; 18.5 µM (inactive) in the assay on UACC-62; 19.4 µM in the assay on HCT-15; 24.3 µM (inactive) in the assay with T47D; 18.1 µM (inactive) in the assay with MDA-MB-435. Further, the GI50 in the assay on SF-295 was 43.2 µM (inactive); in the assay on UACC-257, 18.7 µM (inactive); in the assay with SK-MEL-5, 82 µM (inactive); with DU-145, 25.4 µM (inactive).
In the case of `O=C1Oc2ccccc2C(=O)/C1=C/N1C(=O)/C(=C/c2ccc3c(c2)OCO3)SC1=S`, the GI50 in the assay with HCC 2998 is 17.3 µM (inactive); with HCT-116, 33.7 µM (inactive); in the assay with OVCAR-4 it was 20.8 µM (inactive); in the assay with SK-MEL-2 it was 17.2 µM (inactive); in the assay on MDA-N it was 24.9 µM (inactive); in the assay on SNB-75, 11.1 µM (inactive). Also, the GI50 is 16.8 µM (inactive) with KM12; 14.1 µM (inactive) with RPMI-8226; 13.7 µM (inactive) in the assay with SF-268; 28.2 µM (inactive) with UACC-62; 15.8 µM with HCT-15; 13.6 µM (inactive) with T47D. For the same molecule, the GI50 was 18.7 µM (inactive) with MDA-MB-435; 22.9 µM (inactive) in the assay with SF-295; 24.3 µM (inactive) in the assay on UACC-257; 15.7 µM (inactive) with SK-MEL-5; 19.1 µM (inactive) in the assay on DU-145.
On to `COc1cc(C(=O)NC(CCN)(c2ccccc2)c2ccccc2)cc(OC)c1OC`, for which the GI50 is 13.4 µM (inactive) with HCC 2998; > 42.4 µM (inactive) with HCT-116; 15.3 µM (inactive) in the assay on HOP-92; 21.2 µM (inactive) in the assay with OVCAR-4; 63.2 µM (inactive) with SK-MEL-2; 19.2 µM (inactive) in the assay on MDA-N. Besides, the GI50 with SNB-75 is 17 µM (inactive); in the assay with KM12 it was 29.2 µM (inactive); with RPMI-8226 it was > 10 µM (inactive); with SF-268 it was 29.1 µM (inactive); with UACC-62, > 31.6 µM (inactive); in the assay on HCT-15 it was over 31.6 µM. For the same molecule, the GI50 is 23.4 µM (inactive) with T47D; 16 µM (inactive) in the assay with MDA-MB-435; 21.6 µM (inactive) in the assay with SF-295; 16.8 µM (inactive) with UACC-257; 13 µM (inactive) with SK-MEL-5; > 31.6 µM (inactive) in the assay with DU-145.
For `O=C(O)C1=CN(c2ccncc2)C(c2ccco2)=CC1c1ccccc1[N+](=O)[O-]` (centres undefined), the GI50 in the assay on HCC 2998 is 1.82 µM (inactive); with HCT-116 it was 1.96 µM (inactive); with HOP-92 it was 11.9 µM (inactive); with OVCAR-4 it was 13.9 µM (inactive); in the assay with SK-MEL-2 it was 15.7 µM (inactive); with BT-549, 12.1 µM (inactive). The GI50 was 7.36 µM (inactive) in the assay on SNB-75; 1.75 µM (inactive) in the assay on KM12; 2.67 µM (inactive) in the assay with RPMI-8226; 5.71 µM (inactive) with SF-268; 15.6 µM (inactive) with UACC-62; 2.05 µM in the assay on HCT-15. Moreover, the GI50 with T47D is 10.6 µM (inactive); in the assay with MDA-MB-435 it was 15.1 µM (inactive); in the assay with SF-295, 12.8 µM (inactive); in the assay with UACC-257, 2.31 µM (inactive); in the assay on SK-MEL-5 it was 6.65 µM (inactive); in the assay on DU-145, 13.5 µM (inactive).
For `CCOC(=O)c1cn(-c2ccc(Cl)cc2)c(=O)n2c1nc1ccccc12`, the GI50 in the assay with HCC 2998, in the assay with HCT-116, in the assay on HOP-92, in the assay on OVCAR-4, in the assay on SK-MEL-2 and with BT-549 was > 100 µM (inactive) each time. Besides, the GI50 is > 100 µM (inactive) with SNB-75; > 100 µM (inactive) with KM12; > 100 µM (inactive) in the assay with RPMI-8226; > 100 µM (inactive) in the assay on UACC-62; over 100 µM in the assay with HCT-15; > 100 µM (inactive) in the assay with T47D. Further, the GI50 with MDA-MB-435, in the assay with SF-295, with UACC-257, in the assay on SK-MEL-5 and in the assay on DU-145 was > 100 µM (inactive) each time.
`CC(C)(C)OC(=O)NCC(=O)NCC(=O)NCC(=O)NCC(=O)O` (Boc-GGGG-OH): the GI50 in the assay with HCC 2998, in the assay on HCT-116, in the assay with HOP-92, in the assay with OVCAR-4, in the assay on BT-549 and in the assay with KM12 was > 100 µM (inactive) each time. Also, the GI50 with RPMI-8226 was > 100 µM (inactive); in the assay with SF-268 it was > 100 µM (inactive); in the assay with UACC-62, > 100 µM (inactive); in the assay on HCT-15 it was over 100 µM; with T47D, > 100 µM (inactive); with MDA-MB-435, > 100 µM (inactive). The GI50 in the assay on SF-295, in the assay on UACC-257, with SK-MEL-5 and in the assay on DU-145 was > 100 µM (inactive) each time.
